Consider ten compounds from patent publication US6875736B2, “Methods for identifying RNA binding compounds” (priority 1999, dated 2005).

The test system of series [1] is TAR RNA. The series is described as follows: On-bead screening of encoded tripeptide library with disperse red-labeled TAR RNA. It counts as binding, HIV-1. To be noted: for Color: bead colour with 250 nM disperse red-labeled TAR RNA, 4° C., red after 2 days, pink-red after 3 further days; for Frequency: number of stained beads decoded with this sequence, three copies of library, bead peptides N-acetylated. As for the experimental part: Screening the library with TAR RNA. Three copies of the tripeptide library on encoded beads, which contain more than 95% of the members of the library, were placed in an eppendoff tube and washed with water (500 μL×5) and TK buffer (50 mM Tris-HCl (pH 7.4), 20 mM KCl, 0.1% Triton X-100) (500 μL×4), which is commonly used for the formation of Tat-TAR complexes in vitro (Churcher et al. (1993) J. Mol. Biol. 230, 90-110). After filtration, the beads were suspended in TK buffer (400 μL) and bovine serum albumin (0.1 mg/mL) at room temperature for 1 hour to reduce nonspecific binding. The aqueous phase was removed, and the beads were washed with TK buffer (500 μL×3). After filtration, the beads were resuspended in […] TK buffer, 2.5 μM of bulge mutant TAR RNA was added, and the suspension was stirred at 4° C. for 1 day. The buffer was removed, the beads were resuspended in […] TK buffer, and 250 nM disperse red-dye-labeled-TAR RNA and 2.5 μM bulge mutant TAR RNA were added. After 2 days of stirring at 4° C., the buffer was removed, and the remaining beads were washed with water (500 μL×3). Two red beads were picked under a microscope and placed in separate capillary tubes. The remaining beads were further incubated with a mixture of disperse-red-dye-labeled TAR RNA and bulge mutant TAR RNA for 3 days, as described above. During the second screening, eight beads turned red. These beads were picked and placed in capillary tubes.
Decoding the structures of RNA-binding ligands. A disperse-red dye labeled encoded bead was placed in a 25 μL micro capillary tube containing dimethylformamide (DMF) (2 μL) and the bead was washed with DMF(5 μL×4). After draining the solvent, the bead was resuspended in 2 μL DMF and the micro capillary tube was centrifuged for 4 min and then flame sealed. Each capillary tube containing a bead was then irradiated with UV radiation at 350 nm for 4 hours and spun for 5 minutes in a centrifuge. The capillary tube was opened and the cleaved tag alcohols were silylated with N, O-bis(trimethylsilyl)acetamide in a micro syringe. The N, O-bis(trimethylsilyl)acetamide derivatives (1 μL) were analyzed using electron capture gas chromatography (“ECGC”). A Hewlett Packard 6890 series Gas Chromatography system, equipped with a micro electron capture detector (μ-ECD) and a HP Chemstation operating system, was used for all decoding analyses. The GC was operated in splitless inlet mode, using helium as the carrier gas. A 35 m×0.2 mm i.d.×0.33 μm film thickness HP-Ultra 1 column was used with a temperature program of 1 min isothermal at 200° C. followed by heating at 10° C./min to 320° C. The μ-ECD make up gas was nitrogen.
On-bead selection of structure-specific TAR RNA binding compounds. To identify tripeptides that bind to TAR RNA, the dye disperse red was covalently attached to TAR RNA, and the labeled RNA was incubated in a suspension of library beads made using the split synthesis method. […] Nevertheless, the dye-TAR RNA conjugate was able to enter the beads and bind in a structure-dependent manner to tripeptides attached thereto. The red color of the dye was clearly evenly distributed throughout the translucent bead. Broken beads were not selected. Peptides specific for portions of TAR RNA other than the bulge region were blocked using a relatively large concentration of an unlabeled bulge mutant TAR RNA. A small amount of detergent and low RNA concentrations (250 nM) also minimized non-specific binding.
Ligand Sequence Analysis. Upon incubating the dye-TAR RNA conjugate with the library, only two beads were stained red. These two beads were separated from the rest of the library, which was allowed to incubate with the dye-TAR RNA conjugate for 3 days at 4° C. […] At the end of the second incubation, only eight additional beads were stained pink-red.

The test system of series [2] is wild-type TAR RNA. The series is described as follows: Solid-phase RNA-peptide binding assay (dissociation constant). Details: species or system HIV-1. To be noted: for KREL: KD of a basic Tat peptide / KD of inhibitor; for Kd: wild-type TAR RNA, TK buffer, overnight at 4° C., four independent experiments; for dissociation constant relative to tripeptide ID#1 (times higher): diastereomers of tripeptide ID#1. An excerpt:
Solid-phase RNA-peptide binding assays. TAR RNA binding compounds found and decoded as described above (shown in Table 1) were synthesized on TENTAGEL S-NH2 (4.6 μmole). All fluorenylmethoxycarbonyl (Fmoc)-protected amino acids were purchased from Bachem (Torrance, Calif.). 1-hydroxybenzotriazole (HOBT) and diisopropylcarbodiimide (DIPCDI) were obtained from Aldrich Chemical Co., Milwaukee, Wis. Piperidine and trifluoroacetic acid were purchased from Applied Biosystems Division, Perkin-Elmer. All ligands were synthesized manually according to standard solid-phase peptide synthesis protocols. Coupling efficiencies of residues at each step were monitored using a standard Kaiser test. Deprotection of tripeptides was carried out in 10% water in trifluoroacetic acid (1 mL) for 16 hours at room temperature. After filtration of solvents, the resin was washed with water (1 mL×4), DMF (1 mL×4), and dichloromethane (1 mL×4), and dried under reduced pressure. Ten beads with attached tripeptides were placed in an Eppendorff tube and washed with TK buffer (200 μL×3). The beads were suspended in TK buffer (300 μL) and incubated with TAR RNA (1.95 μM) overnight at 4° C. The suspension was spun in a centrifuge, and the supernatant containing unbound RNA was transferred to a cuvette for optical density measurements at 260 nm using a Shimadzu UV-1601 spectrometer. Equilibrium concentrations of RNA were determined from these measurements. Given that the initial concentrations of ligand and RNA are known, and assuming simple bimolecular receptor/substrate binding, a dissociation constant (KD) was calculated from known equations in order to determine which test compounds bind TAR RNA most tightly.
To verify that this assay reflected RNA-tripeptide interactions and to determine the affinity of these tripeptides for TAR RNA, the eight tripeptides were resynthesized and their dissociation constants with wild-type TAR RNA were measured. […] To compare the RNA binding affinities of 8 ligands to natural Tat peptide, a Tat-derived peptide (Gly48 to Arg57) containing the RNA-binding region of Tat protein was synthesized (FIG. 2(b)) (SEQ. ID. NO. 2). The dissociation constant of the Tat peptide-RNA complex was determined under the same conditions used for the tripeptide-RNA complexes. […] A relative dissociation constant (KREL) can be calculated as the ratios of the Tat peptide to tripeptide dissociation constants (KD) for TAR RNA. Tripeptide ID #1 binds TAR RNA with affinities higher than the wild-type Tat peptide.

For series [3], the system named is Tat trans-activation (HIV-1 LTR promoter, CAT reporter gene). The series is described as follows: Inhibition of Tat trans-activation in HL3T1 cells (CAT reporter). Type of series: cell-based. As for the experimental part:
(§1) Inhibition of Tat trans-activation in cellular assays. […] Cells were grown in 2 mL of Dulbecco's modified Eagle medium (DMEM) supplemented with 10% fetal calf serum in 60 mm dishes at 37° C. in 5% CO2 in a tissue culture incubator. Cells were refreshed by 2 mL DMEM before transfection. Transfection was started by dropwise addition of 250 μL 2×Hepes-buffered saline and maintenance at room temperature for 10 minutes. Approximately 10 μg of plasmids (pSV2Tat and pAL) and increasing amounts of tripeptide 1 were transfected in the presence of CaCl2 (final concentration 125 mM) and the cells were incubated for 4 hours at 37° C. in a tissue culture incubator. The medium was then discarded and the cells were subjected to glycerol shock (1.5 mL of 15%) for 45 seconds. Finally, the cells were washed twice with 5 mL phosphate-buffered saline (PBS) and were grown in 3 mL DMEM. DMEM was changed at 24 hours post-transfection, and cells were harvested 48 hours post-transfection. Cells were lysed in reporter lysis buffer (Promega). Aliquots were used for CAT and luciferase assays. Both activities were normalized to protein concentration determined by using a modified Bradford assay (Bio-Rad).
(§2) Inhibition of Tat trans-activation in vivo. […] Luciferase reporter gene provides an internal control.

In series [4] the test system is luciferase gene. The series can be described thus: Luciferase internal control in HL3T1 cells (pAL plasmid). It counts as cell-based. Conditions: increasing amounts of ligand. Here is the method: as §1, §2
For series [5], the system named is dye-labeled TAR RNA. The series can be described thus: Equilibrium interaction of dye-labeled TAR RNA with bead-tethered tripeptide. It counts as binding, HIV-1. Conditions: dye-labeled TAR RNA 1 μM, TK buffer, 4° C., 5 hours. Here is the method: Second, the equilibrium interaction between dye-labeled TAR RNA and a tripeptide tethered to beads was examined by incubating a suspension of beads containing tripeptide ID#1 in TK buffer (400 μL) with dye-labeled TAR RNA (1 μM) at 4° C. for 5 hours. Beads were stained red upon TAR RNA binding. The interaction between dye-labeled TAR RNA and tripeptide ID #1 is reversible and can be abolished by the addition of unlabeled TAR RNA or tripeptide ID#1 as a competitor. Finally, screening the library with dye-labeled TAR RNA was carried out in the presence of excess unlabeled bulge mutant TAR RNA, inhibiting non-specific TAR RNA-peptide interactions.

Series [6] has as its system TAR RNA. The series is described as follows: NMR (TOCSY/NOESY) of TAR RNA with ligand. It counts as binding, HIV-1. Conditions: 1 to 2 mM RNA and ligand, 5 mM phosphate buffer pH 5.5. Here is the method: NMR Spectroscopy. NMR experiments were performed to determine the interaction sites of tripeptide ID#1 on TAR RNA. NMR spectra of free TAR RNA and TAR RNA complexed with tripeptide ID#1 were recorded. Due to the spectral overlap, it was impossible to follow all but a few well-isolated resonances by conventional 1-dimensional experiments. Therefore, two-dimensional NOESY and TOCSY experiments were performed. All spectra were recorded on a Bruker AMX-500 NMR spectrometer operating at 500 MHz for ^1H equipped with triple resonance probe and H-broadband inverse detection probes. The 1D and 2D ^1H spectra were recorded at approximately 1 to 2 mM RNA and tripeptide ID#1 concentrations in 5 mM phosphate buffer (pH 5.5), with up to 100 mM NaCl. All other conditions were the same as described earlier by Aboul-ela et al. ((1995) J. Mol. Biol. 253, 313-332.). Complete TAR RNA assignments were obtained. Increasing amounts of tripeptide 1 were added to TAR RNA and the spectral changes were monitored by two-dimensional TOCSY experiments. The TOCSY spectrum contains a region where only pyrimidine H5-H6 resonances are found; this region has a well-dispersed 2D spectrum. Resonances in the free RNA and RNA-ligand complexes were assigned by NOESY experiments. […]

The test system of series [7] is HL3T1 cells.
Text: Inhibition of Tat trans-activation in vivo. To test whether the tripeptide 1-TAR RNA interaction could be used to control HIV-1 gene expression in vivo, HL3T 1 cells, a HeLa cell line derivative containing an integrated HIV-1 LTR promoter and CAT reporter gene (Felber & Pavlakis (1988) Science 239, 184-187), were used. […] Plasmids pSV2Tat and pAL express the first exon of Tat protein and luciferase enzyme, respectively. Luciferase reporter gene provides an internal control.

Non-standard residues stand in square brackets, D forms with d. Residues, ends and D or L forms follow the SMILES beside them.

One may read the Kd as a measure of binding affinity in units of concentration. Lower therefore signals higher affinity. For the compound H2N-(D)Thr-(D)Lys-(L)Asn-OH [ID #7], in series [1], the Color result is “Pink” and the Frequency was determined as 1. Besides, in series [2], the KREL turned out to be 1.29 and the dissociation constant Kd is 564 ± 80 nM.
As to H2N-(L)Lys-(D)Lys-(D)Asn-OH [ID #2], in series [1], the Color entry was “Pink” and the Frequency stood at 1. For the same compound, in series [2], the KREL stood at 0.17; the “dissociation constant relative to tripeptide ID#1 (times higher)” value is reported as “approximately 7 times”; the affinity, expressed as Kd, was 4170 nM.
Turning to H2N-(L)Arg-(D)Lys-(L)Arg-OH [ID #6], in series [1], the Color result is recorded as “Pink” and the Frequency was 1. In series [2], the KREL is 0.83 and the Kd came out at 878 ± 80 nM.
With “GRKKRRQRRR [Tat peptide, reference compound]”, the Kd in series [2] was 698 nM.
As for `N=C(N)NCCC[C@H](N)C(N)=O` [L-argininamide, reference compound], the “inhibitory effect on Tat transactivation” value in series [3] (control ligands) is listed as “no inhibitory effect”.
On to H2N-(L)Arg-(D)Lys-(L)Asn-OH [ID #4], for which, in series [1], the Color entry is “Pink” and the Frequency was found to be 1. Also, in series [2], the KREL came to 0.28 and binding was characterised by a dissociation constant (Kd) of 2640 nM.
Regarding H2N-(L)Lys-(L)Lys-(L)Asn-OH [ID #3], in series [1], the Color result was “Pink” and the Frequency was found to be 2. For the same compound, in series [2], the KREL was determined as 0.23, the “dissociation constant relative to tripeptide ID#1 (times higher)” value is recorded as “approximately 7 times” and binding was characterised by a dissociation constant (Kd) of 3220 nM.
Take H2N-(L)Arg-(D)Lys-(L)Val-OH [ID #5]: in series [1], the Color result is on record as “Pink” and the Frequency is recorded as 1. For the same compound, in series [2], the KREL is reported as 0.07 and binding was characterised by a dissociation constant (Kd) of 10400 nM.
Consider `NCCCC[C@H](N)C(=O)N[C@H](CCCCN)C(=O)N[C@@H](CC(N)=O)C(=O)O` [ID #1, H2N-(L)Lys-(D)Lys-(L)Asn-OH] (H-Lys-[dK]-Asn-OH), for which the Tat trans-activation inhibited entry in series [3] (700 nM, CAT activity) is recorded as “more than 90%”. The “Transcription of the luciferase gene” value in series [4] was “not affected”. In addition, in series [5], the “bead staining upon dye-labeled TAR RNA binding” value is “stained red”. Moreover, the “shift of TAR RNA resonances in TOCSY spectra” value in series [6] was “Resonances in the bulge region, U23 and C24, were shifted”. In addition, in series [1], the Color result was “Red” and the Frequency amounted to 2. For the same compound, in series [7], the “Cell viability / toxicity to the cells” value is “not toxic”. In series [2], this compound returned a KREL of 1.73 and an equilibrium dissociation constant (Kd) of 420 ± 44 nM. The compound also gave a Kd in series [2] (listed as tripeptide ID#1) of 441 nM.
As for H2N-(D)Thr-(D)Lys-(L)Phe-OH [ID #8], in series [1], the Color entry is “Pink” and the Frequency is listed as 1. In series [2], this compound came in with a KREL of 0.35 and an equilibrium dissociation constant (Kd) of 2090 nM.
